Experimental findings from patent US9789110B2, “Diacylglycerol acyltransferase 2 inhibitors” (PFIZER INC., priority 2014, dated 2017) are described below.

Chain of hDGAT2 (Q96PD7 whole entry): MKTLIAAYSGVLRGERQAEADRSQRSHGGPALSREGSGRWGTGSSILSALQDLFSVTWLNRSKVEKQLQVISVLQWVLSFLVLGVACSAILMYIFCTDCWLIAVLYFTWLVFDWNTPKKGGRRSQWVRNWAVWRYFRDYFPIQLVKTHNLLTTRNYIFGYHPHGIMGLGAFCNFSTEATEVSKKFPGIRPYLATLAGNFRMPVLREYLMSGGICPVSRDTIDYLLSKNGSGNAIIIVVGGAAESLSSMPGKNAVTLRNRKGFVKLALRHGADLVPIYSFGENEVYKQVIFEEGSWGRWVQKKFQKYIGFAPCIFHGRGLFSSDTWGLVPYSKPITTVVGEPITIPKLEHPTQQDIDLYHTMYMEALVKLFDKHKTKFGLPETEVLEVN

The first assay concerns the target hDGAT2 (Homo sapiens (Human), UniProt Q96PD7). As to the kind of experiment: In vitro DGAT2 assay, hDGAT2 membrane fraction, [14C]decanoyl-CoA scintillation readout. Format: biochemical. To be noted: geometric mean; FLAG-hDGAT2 membrane fraction; 2 h preincubation; read-out: IC50 for inhibition of DGAT2. The method, then:
Recombinant baculovirus for the FLAG-tagged hDGAT2 was generated in SF9 insect cells using Bac-to-Bac baculovirus expression system (Invitrogen) according to the manufacturer's protocol. For the expression of hDGAT2, SF9 cells (20 L) grown in Sf90011 media were infected with hDGAT2 baculovirus at a multiplicity of infection of 1 in a Wave Bioreactor System 20/50P wave bag (GE Healthcare). After 40 hours of infection, the cells were then harvested by centrifugation at 5,000×g. The cell pellets were washed by resuspending in phosphate buffered saline (PBS) and collected by centrifugation at 5,000×g. The cell paste was flash frozen in liquid N2 and stored at −80° C. until needed. All operations below were at 4° C. unless otherwise noted. The cells were resuspended in lysis buffer (50 mM Tris-HCl, pH 8.0, 250 mM sucrose) including 1 mM ethylenediaminetetraacetic acid (EDTA) and the complete protease inhibitor cocktail (Roche Diagnostics) at a ratio of 3 ml buffer per 1 g cell paste. The cells were lysed by dounce homogenizer. The cell debris was removed by centrifugation at 1,000×g for 20 min, and the supernatant was centrifuged at 100,000×g for 1 hour. The resulting pellet was rinsed three times by filling ultracentrifuge tubes to the top with ice cold PBS before decanting. The washed pellet was resuspended with gentle stirring for 1 hour in lysis buffer containing 8 mM 3-[(3-cholamidopropyl)dimethylammonio]-1-propanesulfonate (CHAPS) at a ratio of 1 mL buffer per 1 g of original cell paste and centrifuged again at 100,000×g for 1 hour. The resulting supernatant was aliquotted, flash frozen in liquid N2, and stored at −80° C. until use.
For determination of IC50 values, the reactions were carried out in 384-well white Polyplates (Perkin Elmer) in a total volume of 20 μL. To […] compounds dissolved in 100% DMSO and spotted at the bottom of each well, 5 μL of 0.04% bovine serum albumin (BSA) (fatty acid free, Sigma Aldrich) was added and the mixture was incubated at room temperature for 20 minutes. To this mixture, 10 μL of hDGAT2 membrane fraction (0.01 mg/mL) diluted in 100 mM Hepes-NaOH, pH 7.4, 20 mM MgCl2 containing 200 nM methyl arachidonyl fluorophosphonate (Cayman Chemical; dried from ethyl acetate stock solution under argon gas and dissolved in DMSO as 5 mM stock) was added. After this mixture was preincubated at room temperature for 2 hours, DGAT2 reactions were initiated by the addition of 4 μL of substrates containing 30 μM [1-^14C]decanoyl-CoA (custom-synthesized by Perkin Elmer, 50 mCi/mmol) and 125 μM 1,2-didecanoyl-sn-glycerol (Avanti Polar Lipids) dissolved in 12.5% acetone. The reaction mixtures were incubated at room temperature for 40 min and the reactions were stopped by addition of 5 μL of 1% H3PO4. After the addition of 45 μL MicroScint-E (Perkin-Elmer), plates were sealed with Top Seal-A covers (Perkin-Elmer) and phase partitioning of substrates and products was achieved using a HT-91100 microplate orbital shaker (Big Bear Automation, Santa Clara, Calif.). Plates were centrifuged at 2,000×g for 1 min in an Allegra 6R Centrifuge (Beckman Coulter) and then were sealed again with fresh covers before reading in a 1450 Microbeta Wallac Trilux Scintillation Counter (Perkin Elmer). DGAT2 activity was measured by quantifying the generated product [^14C]tridecanoylglycerol in the upper organic phase.
Inhibitors were tested at eleven different concentrations to generate IC50 values for each compound.
Turning to `CCOc1ccccc1O[C@@H]1CCCN(c2ncc(C(=O)N3CCC3)cn2)C1` [Example 19.11, (R)-azetidin-1-yl(2-(3-(2-ethoxyphenoxy)piperidin-1-yl)pyrimidin-5-yl)methanone], the IC50 is 26.7 nM.
The same measure, in the same setting: in the case of `CCOc1ccccc1O[C@@H]1CCCN(c2ncc(C(=O)N3CC(Oc4ccccc4)C3)cn2)C1` [Example 21.2, (R)-(2-(3-(2-ethoxyphenoxy)piperidin-1-yl)pyrimidin-5-yl)(3-phenoxyazetidin-1-yl)methanone] it was 0.6 nM.
Same read-out and setting: in the case of `CCOc1ccccc1O[C@@H]1CCCN(c2ncc(C(=O)Nc3ccon3)cn2)C1` [Example 19.19, (R)-2-(3-(2-ethoxyphenoxy)piperidin-1-yl)-N-(isoxazol-3-yl)pyrimidine-5-carboxamide] it was 11.1 nM; in that of `CCOc1ccccc1O[C@@H]1CCCN(c2ncc(C(=O)N3Cc4ccccc4C3)cn2)C1` [Example 19.12, (R)-(2-(3-(2-ethoxyphenoxy)piperidin-1-yl)pyrimidin-5-yl)(isoindolin-2-yl)methanone], 1.4 nM; in that of `CCOc1ccccc1O[C@@H]1CCCN(c2ncc(C(=O)NCc3ccon3)cn2)C1` [Example 19.3, (R)-2-(3-(2-ethoxyphenoxy)piperidin-1-yl)-N-(isoxazol-3-ylmethyl)pyrimidine-5-carboxamide], 10.8 nM.
The same measure, in the same setting: the same measure for `CCOc1ccccc1O[C@@H]1CCCN(c2ncc(C(=O)NCCCc3nn[nH]n3)cn2)C1` [Example 20.2, (R)-N-(3-(2H-tetrazol-5-yl)propyl)-2-(3-(2-ethoxyphenoxy)piperidin-1-yl)pyrimidine-5-carboxamide]: 431 nM; for `CCOc1ccccc1O[C@@H]1CCCN(c2ncc(C(=O)NCc3ccccc3)cn2)C1` [Example 19.7, (R)-N-benzyl-2-(3-(2-ethoxyphenoxy)piperidin-1-yl)pyrimidine-5-carboxamide]: 4.3 nM; for `CCOc1ccccc1O[C@@H]1CCCN(c2ncc(C(=O)N[C@H]3CNC(=O)C3)cn2)C1` [Example 19.13, 2-((R)-3-(2-ethoxyphenoxy)piperidin-1-yl)-N-((R)-5-oxopyrrolidin-3-yl)pyrimidine-5-carboxamide]: 46.7 nM.
In the case of `CCOc1ccccc1O[C@@H]1CCCN(c2ncc(C(=O)NCCC(N)=O)cn2)C1` [Example 20.1, (R)-N-(3-amino-3-oxopropyl)-2-(3-(2-ethoxyphenoxy)piperidin-1-yl)pyrimidine-5-carboxamide], the IC50 was determined as 149 nM.
On the same count and under the same terms, in the case of `CCOc1ccccc1O[C@@H]1CCCN(c2ncc(C(=O)N3CC(OC)C3)cn2)C1` [Example 19.9, (R)-(2-(3-(2-ethoxyphenoxy)piperidin-1-yl)pyrimidin-5-yl)(3-methoxyazetidin-1-yl)methanone] it was 14.3 nM.
Take `CCOc1ccccc1O[C@@H]1CCCN(c2ncc(C(=O)NCC3CC3)cn2)C1` [Example 19.4, (R)-N-(cyclopropylmethyl)-2-(3-(2-ethoxyphenoxy)piperidin-1-yl)pyrimidine-5-carboxamide]: the IC50 was 18.6 nM.
On the same count and under the same terms, the same measure for `CCOc1ccccc1O[C@@H]1CCCN(c2ncc(C(=O)NC3CCC3)cn2)C1` [Example 19.22, (R)-N-cyclobutyl-2-(3-(2-ethoxyphenoxy)piperidin-1-yl)pyrimidine-5-carboxamide]: 10.7 nM; for `CCOc1ccccc1O[C@@H]1CCCN(c2ncc(C(=O)N[C@@H]3CNC(=O)C3)cn2)C1` [Example 19.16, 2-((R)-3-(2-ethoxyphenoxy)piperidin-1-yl)-N-((S)-5-oxopyrrolidin-3-yl)pyrimidine-5-carboxamide]: 122 nM; for `CCOc1ccccc1O[C@@H]1CCCN(c2ncc(C(=O)N3CC(F)(F)C3)cn2)C1` [Example 20.7, (R)-(3,3-difluoroazetidin-1-yl)(2-(3-(2-ethoxyphenoxy)piperidin-1-yl)pyrimidin-5-yl)methanone]: 7.9 nM.
For the molecule `CCOc1ccccc1O[C@@H]1CCCN(c2ncc(C(=O)NCc3cccc(C(=O)O)c3OC)cn2)C1` [Example 14, (R)-3-((2-(3-(2-ethoxyphenoxy)piperidin-1-yl)pyrimidine-5-carboxamido)methyl)-2-methoxybenzoic acid], the IC50 came to 76.6 nM.
Still for that read-out and setting: in the case of `CCOc1ccccc1O[C@@H]1CCCN(c2ncc(C(=O)NCc3cnccn3)cn2)C1` [Example 19.18, (R)-2-(3-(2-ethoxyphenoxy)piperidin-1-yl)-N-(pyrazin-2-ylmethyl)pyrimidine-5-carboxamide] it was 22.5 nM; in that of `CCOc1ccccc1O[C@@H]1CCCN(c2ncc(C(=O)N[C@H]3CCc4ccccc43)cn2)C1` [Example 21.1, N-((S)-2,3-dihydro-1H-inden-1-yl)-2-((R)-3-(2-ethoxyphenoxy)piperidin-1-yl)pyrimidine-5-carboxamide], 1.5 nM.
Still for that read-out and setting: the same measure for `CCOc1ccccc1O[C@@H]1CCCN(c2ncc(C(=O)NCCS(C)(=O)=O)cn2)C1` [Example 19.8, (R)-2-(3-(2-ethoxyphenoxy)piperidin-1-yl)-N-(2-(methylsulfonyl)ethyl) pyrimidine-5-carboxamide]: 102 nM.
Same read-out and setting: the same measure for `CCOc1ccccc1O[C@@H]1CCCN(c2ncc(C(=O)N3CCCC3)cn2)C1` [Example 20.9, (R)-(2-(3-(2-ethoxyphenoxy)piperidin-1-yl)pyrimidin-5-yl)(pyrrolidin-1-yl)methanone]: 24.5 nM.
As for `CCOc1ccccc1O[C@@H]1CCCN(c2ncc(C(=O)N3CCOCC3)cn2)C1` [Example 19.1, (R)-(2-(3-(2-ethoxyphenoxy)piperidin-1-yl)pyrimidin-5-yl)(morpholino)methanone], the IC50 was determined as 22.6 nM.
On the same count and under the same terms, the same measure for `CCOc1ccccc1O[C@@H]1CCCN(c2ncc(C(=O)N3C[C@H]4C[C@@H]3CO4)cn2)C1` [Example 19.14, ((1R,4R)-2-oxa-5-azabicyclo[2.2.1]heptan-5-yl)(2-((R)-3-(2-ethoxyphenoxy)piperidin-1-yl)pyrimidin-5-yl)methanone]: 21.5 nM; for `CCOc1ccccc1O[C@@H]1CCCN(c2ncc(C(=O)NCC(=O)NC)cn2)C1` [Example 20.6, (R)-2-(3-(2-ethoxyphenoxy)piperidin-1-yl)-N-(2-(methylamino)-2-oxoethyl)pyrimidine-5-carboxamide]: 144 nM; for `CCOc1ccccc1O[C@@H]1CCCN(c2ncc(C(=O)NCc3cocn3)cn2)C1` [Example 19.15, (R)-2-(3-(2-ethoxyphenoxy)piperidin-1-yl)-N-(oxazol-4-ylmethyl)pyrimidine-5-carboxamide]: 11.2 nM.
Still for that read-out and setting: in the case of `CCOc1ccccc1O[C@@H]1CCCN(c2ncc(C(=O)NCCC(=O)NC)cn2)C1` [Example 20.4, (R)-2-(3-(2-ethoxyphenoxy)piperidin-1-yl)-N-(3-(methylamino)-3-oxopropyl)pyrimidine-5-carboxamide] it was 53.3 nM; in that of `CCOc1ccccc1O[C@@H]1CCCN(c2ncc(C(=O)NCC(=N)N)cn2)C1` [Example 19.5, (R)-N-(2-amino-2-iminoethyl)-2-(3-(2-ethoxyphenoxy)piperidin-1-yl)pyrimidine-5-carboxamide], 124 nM.
Still for that read-out and setting: in the case of `CCOc1ccccc1O[C@@H]1CCCN(c2ncc(C(=O)Nc3cncnc3)cn2)C1` [Example 19.20, (R)-2-(3-(2-ethoxyphenoxy)piperidin-1-yl)-N-(pyrimidin-5-yl)pyrimidine-5-carboxamide] it was 33.3 nM; in that of `CCOc1ccccc1O[C@@H]1CCCN(c2ncc(C(=O)N3Cc4cnn(C)c4C3)cn2)C1` [Example 19.6, (R)-(2-(3-(2-ethoxyphenoxy)piperidin-1-yl)pyrimidin-5-yl)(1-methyl-4,6-dihydropyrrolo[3,4-c]pyrazol-5(1H)-yl)methanone], 34.9 nM.

Staying with this assay, now noted: read-out: IC50 for inhibition of DGAT2.
As to `CCOc1ccccc1O[C@@H]1CCCN(c2ncc(C(=O)N3CCCCC3)cn2)C1` [Example 20.11, (R)-(2-(3-(2-ethoxyphenoxy)piperidin-1-yl)pyrimidin-5-yl)(piperidin-1-yl)methanone], the IC50 was found to be 15.7 nM.
